Key:
[1] = biological target: T1, Amine oxidase [flavin-containing] A (Rattus norvegicus, UniProt P21396); test: Inhibition of MAO-A in rat liver mitochondria using p-tyramine as substrate preincubated for 10 mins followed by substrate addition measured after 30 mins in presence of MAO-B inhibitor deprenyl by Amplex red dye-based fluorescence assay
T1 sequence (P21396 whole entry): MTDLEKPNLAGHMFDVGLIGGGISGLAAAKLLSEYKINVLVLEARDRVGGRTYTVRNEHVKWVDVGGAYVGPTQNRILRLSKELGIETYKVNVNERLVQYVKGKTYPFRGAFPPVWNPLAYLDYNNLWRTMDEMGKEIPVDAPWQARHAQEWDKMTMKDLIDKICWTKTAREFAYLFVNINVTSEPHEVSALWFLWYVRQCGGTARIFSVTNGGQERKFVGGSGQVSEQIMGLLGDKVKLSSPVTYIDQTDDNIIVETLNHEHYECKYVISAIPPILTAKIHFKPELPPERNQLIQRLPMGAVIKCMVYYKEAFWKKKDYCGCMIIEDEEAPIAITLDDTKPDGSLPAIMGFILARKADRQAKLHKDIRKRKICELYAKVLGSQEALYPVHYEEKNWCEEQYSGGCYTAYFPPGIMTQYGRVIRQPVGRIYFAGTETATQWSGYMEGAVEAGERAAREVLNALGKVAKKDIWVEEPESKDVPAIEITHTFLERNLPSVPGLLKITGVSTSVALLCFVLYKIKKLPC

[2] = biological target: T2, Amine oxidase [flavin-containing] B (Rattus norvegicus, UniProt P19643); test: Inhibition of MAO-B in rat liver mitochondria using p-tyramine as substrate preincubated for 10 mins followed by substrate addition measured after 30 mins in presence of MAO-A inhibitor clorgyline by Amplex red dye-based fluorescence assay
T2 sequence (P19643 whole entry): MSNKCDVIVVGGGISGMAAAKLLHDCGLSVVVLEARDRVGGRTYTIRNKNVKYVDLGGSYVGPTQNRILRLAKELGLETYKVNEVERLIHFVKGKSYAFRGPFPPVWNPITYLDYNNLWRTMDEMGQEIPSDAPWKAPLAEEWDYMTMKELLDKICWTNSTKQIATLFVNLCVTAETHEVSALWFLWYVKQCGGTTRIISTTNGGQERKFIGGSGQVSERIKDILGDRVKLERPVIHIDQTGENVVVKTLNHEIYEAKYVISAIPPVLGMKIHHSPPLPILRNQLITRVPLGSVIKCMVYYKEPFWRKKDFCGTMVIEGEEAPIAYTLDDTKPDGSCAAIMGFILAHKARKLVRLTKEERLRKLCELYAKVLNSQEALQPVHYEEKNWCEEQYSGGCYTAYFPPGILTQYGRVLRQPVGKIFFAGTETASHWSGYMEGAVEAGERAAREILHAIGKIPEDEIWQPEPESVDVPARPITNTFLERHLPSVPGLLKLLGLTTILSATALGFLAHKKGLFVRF

[3] = organism: Rattus norvegicus; test: Selectivity index, ratio of IC50 for MAO-A in rat liver mitochondria to IC50 for MAO-B in rat liver mitochondria
[4] = biological target: T2, Amine oxidase [flavin-containing] B; test: Competitive inhibition of MAO-B in rat liver mitochondria using p-tyramine as substrate up to 0.3 uM preincubated for 10 mins followed by substrate addition measured after 30 mins by Lineweaver-burk plot analysis; conditions: 0.5 h
[5] = biological target: T1, Amine oxidase [flavin-containing] A; test: Competitive inhibition of MAO-A in rat liver mitochondria using p-tyramine as substrate up to 0.15 uM preincubated for 10 mins followed by substrate addition measured after 30 mins by Lineweaver-burk plot analysis; conditions: 0.5 h

Compound | IC50 [1] | IC50 [2] | Ratio IC50 [3] | inhibition (INH) [4] | inhibition (INH) [5]
CCOc1ccc(/C=N/NC(=O)C2=C(O)c3ccccc3S(=O)(=O)N2Cc2ccccc2)cc1 | 28.3 µM | 5.78 µM | 4.89 | – | –
C/C(=N\NC(=O)C1=C(O)c2ccccc2S(=O)(=O)N1C)c1ccc(F)cc1 | 10.8 µM | 25.1 µM | 0.43 | – | –
COC(=O)C1=C(O)c2ccccc2S(=O)(=O)N1C | 26.6 µM | 23.1 µM | 1.15 | – | –
CN1C(C(=O)N/N=C/c2ccccc2O)=C(O)c2ccccc2S1(=O)=O | 11.4 µM | 3.41 µM | 3.34 | – | –
C/C(=N\NC(=O)C1=C(O)c2ccccc2S(=O)(=O)N1C)c1ccc(Cl)cc1 | 11.2 µM | 0.76 µM | 14.7 | – | –
O=C(N/N=C/c1ccc(Cl)cc1)C1=C(O)c2ccccc2S(=O)(=O)N1Cc1ccccc1 | ≥ 100 µM | 2.08 µM | > 48.1 | – | –
CC(C)c1ccc(/C=N/NC(=O)C2=C(O)c3ccccc3S(=O)(=O)N2Cc2ccccc2)cc1 | 5.07 µM | 36.8 µM | 0.13 | – | –
COc1ccc(/C=N/NC(=O)C2=C(O)c3ccccc3S(=O)(=O)N2C)cc1 | 18.9 µM | 23.1 µM | 0.82 | – | –
CCOc1ccc(/C=N/NC(=O)C2=C(O)c3ccccc3S(=O)(=O)N2)cc1 | 16.9 µM | 9.31 µM | 1.81 | – | –
C/C(=N\NC(=O)C1=C(O)c2ccccc2S(=O)(=O)N1)c1ccc(Cl)cc1 | ≥ 100 µM | 10.9 µM | > 9.17 | – | –
COC(=O)C1=C(O)c2ccccc2S(=O)(=O)N1 | 2.97 µM | 0.21 µM | 14.1 | Active | –
Cc1ccc(/C=N/NC(=O)C2=C(O)c3ccccc3S(=O)(=O)N2Cc2ccccc2)cc1 | ≥ 100 µM | 89.1 µM | > 1.12 | – | –
Cc1ccc(/C=N/NC(=O)C2=C(O)c3ccccc3S(=O)(=O)N2)cc1 | 7.48 µM | 0.64 µM | 11.7 | – | –
C/C(=N\NC(=O)C1=C(O)c2ccccc2S(=O)(=O)N1Cc1ccccc1)c1ccc(F)cc1 | ≥ 100 µM | 6.04 µM | > 16.5 | – | –
CN1C(C(=O)N/N=C/c2ccccc2)=C(O)c2ccccc2S1(=O)=O | 21.1 µM | 1.76 µM | 11.9 | – | –
O=C(NN=C1CCCC1)C1=C(O)c2ccccc2S(=O)(=O)N1 | ≥ 100 µM | 0.92 µM | > 109 | – | –
CN1C(C(=O)N/N=C/c2ccc(Cl)cc2)=C(O)c2ccccc2S1(=O)=O | 6.12 µM | 15.5 µM | 0.39 | – | –
O=C(N/N=C/c1ccccc1O)C1=C(O)c2ccccc2S(=O)(=O)N1Cc1ccccc1 | 18.7 µM | 4.24 µM | 4.41 | – | –
COc1ccc(/C=N/NC(=O)C2=C(O)c3ccccc3S(=O)(=O)N2)cc1 | 5.76 µM | 1.91 µM | 3.02 | – | –
CC(C)c1ccc(/C=N/NC(=O)C2=C(O)c3ccccc3S(=O)(=O)N2)cc1 | ≥ 100 µM | 38.1 µM | > 2.62 | – | –
CN1C(C(=O)N/N=C/c2cccc(Cl)c2)=C(O)c2ccccc2S1(=O)=O | 29.8 µM | 38.3 µM | 0.78 | – | –
C/C(=N\NC(=O)C1=C(O)c2ccccc2S(=O)(=O)N1C)c1ccccc1 | 6.67 µM | 7.14 µM | 0.93 | – | –
O=C(N/N=C/c1ccccc1O)C1=C(O)c2ccccc2S(=O)(=O)N1 | 5.07 µM | 9.47 µM | 0.53 | – | –
NNC(=O)C1=C(O)c2ccccc2S(=O)(=O)N1Cc1ccccc1 | ≥ 100 µM | 10.6 µM | > 9.43 | – | –
O=C(NN=C1CCCC1)C1=C(O)c2ccccc2S(=O)(=O)N1Cc1ccccc1 | ≥ 100 µM | 0.99 µM | > 101 | – | –
C/C(=N\NC(=O)C1=C(O)c2ccccc2S(=O)(=O)N1)c1ccc(F)cc1 | 53.4 µM | 40.3 µM | 1.32 | – | –
Cc1ccc(/C=N/NC(=O)C2=C(O)c3ccccc3S(=O)(=O)N2C)cc1 | 4.85 µM | 24.1 µM | 0.2 | – | –
O=C(N/N=C/c1ccccc1)C1=C(O)c2ccccc2S(=O)(=O)N1Cc1ccccc1 | ≥ 100 µM | 9.52 µM | > 10.5 | – | –
COC(=O)C1=C(O)c2ccccc2S(=O)(=O)N1Cc1ccccc1 | 9.51 µM | 0.29 µM | 32.8 | – | –

The next compounds have a lower IC50 [1] than those just listed; values first:

IC50 [1] | IC50 [2] | Ratio IC50 [3] | inhibition (INH) [4] | inhibition (INH) [5] | Compound
0.32 µM | 0.76 µM | 0.42 | – | – | CCOc1ccc(/C=N/NC(=O)C2=C(O)c3ccccc3S(=O)(=O)N2C)cc1
0.177 µM | 0.31 µM | 0.57 | – | – | O=C(N/N=C/c1ccc(Cl)cc1)C1=C(O)c2ccccc2S(=O)(=O)N1
0.35 µM | 39.3 µM | 0.01 | – | – | O=C(N/N=C/c1cccc(Cl)c1)C1=C(O)c2ccccc2S(=O)(=O)N1
0.44 µM | 18.2 µM | 0.02 | – | – | CC(C)c1ccc(/C=N/NC(=O)C2=C(O)c3ccccc3S(=O)(=O)N2C)cc1
0.96 µM | 36.4 µM | 0.02 | – | – | O=C(N/N=C/c1cccc(Cl)c1)C1=C(O)c2ccccc2S(=O)(=O)N1Cc1ccccc1
0.38 µM | 8.61 µM | 0.04 | – | – | CN1C(C(=O)NN=C2CCCC2)=C(O)c2ccccc2S1(=O)=O
0.12 µM | 1.5 µM | 0.08 | – | – | CN1C(C(=O)NN)=C(O)c2ccccc2S1(=O)=O
1.58 µM | 4.33 µM | 0.36 | – | – | NNC(=O)C1=C(O)c2ccccc2S(=O)(=O)N1
1.22 µM | 2.26 µM | 0.54 | – | – | C/C(=N\NC(=O)C1=C(O)c2ccccc2S(=O)(=O)N1Cc1ccccc1)c1ccccc1
0.33 µM | 10.1 µM | 0.03 | – | – | C/C(=N\NC(=O)C1=C(O)c2ccccc2S(=O)(=O)N1Cc1ccccc1)c1ccc(Cl)cc1
0.11 µM | 3.33 µM | 0.03 | – | Active | C/C(=N\NC(=O)C1=C(O)c2ccccc2S(=O)(=O)N1)c1ccccc1
1.11 µM | 0.27 µM | 4.11 | – | – | COC(=O)CN1C(=O)c2ccccc2S1(=O)=O
0.24 µM | 0.29 µM | 0.83 | – | – | COc1ccc(/C=N/NC(=O)C2=C(O)c3ccccc3S(=O)(=O)N2Cc2ccccc2)cc1
1.91 µM | 8.86 µM | 0.21 | – | – | O=C(N/N=C/c1ccccc1)C1=C(O)c2ccccc2S(=O)(=O)N1
